Source: paper PMC9698483, “Berbamine Reduces Chloroquine-Induced Itch in Mice through Inhibition of MrgprX1” (International Journal of Molecular Sciences, 2022)

Columns and labels:
[1] = target: T1, MrgprX1 (Homo sapiens, UniProt Q96LB2); experiment: Intracellular calcium measurement (Fluo-4 NW) in HEK293T cells expressing MrgprX1; type: cell-based
T1 construct: expressed in transfected cells
Protocol: To identify novel antagonists of MrgprX1, a cell-based screening assay was established. […] Cells were treated with the indicated concentrations of CQ where the arrow indicates. (B) Summary of dose-response (mean ± S.E., n = 6). (C) Representative Fluo−4 fluorescence traces of MrgprX1 antagonist screening. Cells were treated with 30 μM of the test compounds for 10 min prior to treatment with 300 μM CQ.
Figure 2 Effect of berbamine and closantel on CQ- and ionomycin-induced increases in intracellular calcium levels: (A,B) Intracellular calcium levels were measured using Fluo−4 NW in HEK293T cells expressing MrgprX1. The cells were pretreated with the indicated concentrations of berbamine (BBM) and closantel (CLS) for 10 min prior to treatment with 300 μM CQ. (C) Summary of dose-response (mean ± S.E., n = 6). […] The cells were pretreated with the indicated concentrations of BBM and CLS for 10 min before treatment with ionomycin. (F) Summary of dose–response (mean ± S.E., n = 6).
Intracellular calcium levels were measured using a Fluo-4 NW calcium assay kit (Invitrogen, Carlsbad, CA) as per the manufacturer’s protocol in HEK293T and HT29 cells. Briefly, the cells were plated in a 96-well black-walled plate and incubated with 100 μL of assay buffer including Fluo-4 NW. […] Intracellular calcium increase was induced with the application of the indicated agonist. All modulators were dissolved in DMSO, and cells were treated with a final concentration of 1% DMSO.

[2] = target: T2, MrgprC11 (Mus musculus, UniProt Q8CIP3); experiment: Activation of MrgprC11 in MrgprC11-expressing HEK293T cells (calcium); type: cell-based
T2 construct: expressed in transfected cells; host or cells: HEK293T
T2 sequence (Q8CIP3 1-322): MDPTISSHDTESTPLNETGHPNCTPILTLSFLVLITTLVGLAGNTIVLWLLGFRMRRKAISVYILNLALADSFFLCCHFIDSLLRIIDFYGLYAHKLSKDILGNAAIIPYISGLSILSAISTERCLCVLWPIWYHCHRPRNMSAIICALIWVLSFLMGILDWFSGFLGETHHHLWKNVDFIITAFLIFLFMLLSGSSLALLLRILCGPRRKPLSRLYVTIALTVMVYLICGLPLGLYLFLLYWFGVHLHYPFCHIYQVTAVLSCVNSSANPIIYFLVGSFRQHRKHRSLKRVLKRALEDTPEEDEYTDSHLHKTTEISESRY
Protocol: To investigate the effect of berbamine on other pruritogenic GPCRs, we observed the effect of berbamine on histamine H1 receptor (H1R), histamine H4 receptor (H4R), MrgprC11, MrgprX4, PAR2, and TGR5.
(§1) Figure 3 Effects of berbamine on the activity of other pruritogenic GPCRs: (A,B) Effect of berbamine on histamine 1 receptor (H1R) and histamine 4 receptor (H4R). H1R- and H4R-expressing HEK293T cells were pretreated with 30 μM BBM for 10 min prior to 100 μM histamine treatment. […] (C) Effect of berbamine on PAR2. HT29 cells were pretreated with BBM for 10 min prior to 30 μM PAR2-AP treatment. […] (D) Effect of berbamine on MrgprC11. MrgprC11-expressing HEK293T cells were pretreated with BBM for 10 min prior to 100 μM […] treatment. (E) Effect of berbamine on MrgprX4. MrgprX4-expressing HEK293T cells were pretreated with BBM for 10 min prior to 80 μM DCA treatment. (F) Effect of berbamine on TGR5. TGR5 activity was measured using a YFP fluorescence quenching assay. CHO-K1 cells coexpressing TGR5 and a halide sensor YFP were pretreated with BBM and 80 μM DCA for 10 min prior to I^- treatment. Results were summarized as means ± S.E. (n = 6). NTC, nontransfected cells.
Intracellular calcium levels were measured using a Fluo-4 NW calcium assay kit (Invitrogen, Carlsbad, CA) as per the manufacturer’s protocol in HEK293T and HT29 cells. […]

[3] = target: T3, TGR5 (Homo sapiens, UniProt Q8TDU6); experiment: TGR5 activity by YFP fluorescence quenching assay in CHO-K1 cells; type: cell-based; settings: 30 μM with 80 μM DCA for 10 min
T3 construct: expressed in transfected cells; host or cells: CHO-K1
T3 sequence (Q8TDU6 1-330): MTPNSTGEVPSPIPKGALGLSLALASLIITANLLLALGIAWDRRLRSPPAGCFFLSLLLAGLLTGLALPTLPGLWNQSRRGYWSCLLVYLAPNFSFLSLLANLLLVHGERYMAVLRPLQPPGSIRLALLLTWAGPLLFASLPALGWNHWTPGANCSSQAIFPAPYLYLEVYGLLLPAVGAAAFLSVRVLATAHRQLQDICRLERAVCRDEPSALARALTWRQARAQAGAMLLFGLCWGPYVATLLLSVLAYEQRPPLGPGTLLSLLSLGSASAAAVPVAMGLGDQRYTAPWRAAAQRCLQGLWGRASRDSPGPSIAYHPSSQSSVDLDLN
Protocol: as §1
All modulators were dissolved in DMSO, and cells were treated with a final concentration of 1% DMSO.

[4] = system: PAR2-AP-induced itch; experiment: PAR2-AP-induced pruritus in mice (scratching bouts); type: in vivo, BALB/c mice; settings: 30 mg/kg i.p., PAR2-AP 100 μg/50 μL
Protocol: To investigate the antipruritic effect of berbamine, we observed the effect of berbamine on pruritogen-induced scratching behavior in BALB/c mice. Mice were transferred to clear cages and treated with berbamine intraperitoneally after a 30 min acclimatization period. Mouse behavior was recorded for 30 min right after the subcutaneous injection of pruritogens to the nape 30 min after berbamine treatment (Figure 7A). […] We further investigated the effect of berbamine on pruritus caused by other pruritogens.
Figure 7 Effect of berbamine on acute pruritogen-induced pruritus in mice: (A) Scheme of acute pruritogen-induced pruritus mouse model. […] Statistical significance of differences between each group and CQ group was assessed using one-way ANOVA with Tukey’s post hoc test. * p < 0.05, ** p < 0.01, *** p < 0.001. […] Statistical significance of differences was determined using Student’s t-test. […]
[…] six-week-old BALB/c male mice were purchased from DBL (Chungcheong-do, Republic of Korea), and an additional 1 week was given for accommodation. […] After 30 min, pruritogen compounds (i.e., CQ, histamine, PAR2-AP, and DCA) were subcutaneously administered into the nape, and scratching bouts were recorded for 30 min. […] The total number of scratching bouts was counted by recording the number of scratching bouts in the recorded video over 30 min of observation time.

T1 sequence (Q96LB2 whole entry): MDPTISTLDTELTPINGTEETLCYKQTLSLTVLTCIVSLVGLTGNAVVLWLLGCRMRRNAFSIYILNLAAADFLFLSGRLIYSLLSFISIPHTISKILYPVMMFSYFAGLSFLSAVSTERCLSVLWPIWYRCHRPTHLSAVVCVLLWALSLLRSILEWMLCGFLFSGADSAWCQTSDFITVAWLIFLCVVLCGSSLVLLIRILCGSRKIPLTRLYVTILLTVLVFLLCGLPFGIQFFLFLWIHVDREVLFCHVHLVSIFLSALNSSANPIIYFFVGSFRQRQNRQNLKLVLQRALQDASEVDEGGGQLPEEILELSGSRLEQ

For `COc1cc2c3cc1Oc1c(OC)c(OC)cc4c1[C@@H](Cc1ccc(O)c(c1)Oc1ccc(cc1)C[C@@H]3N(C)CC2)N(C)CC4` [berbamine], the “activation of MrgprX1 by the compound itself” value ([1]; 30 μM berbamine (Figure S1)) was “did not activate MrgprX1 by itself”, the “mode of inhibition of the activation of MrgprX1 by CQ” value ([1]; 30 μM berbamine, CQ dose response (Figure S3)) was “competitive inhibitory effect” and the “inhibition of MrgprX1 activation by BAM8-22” value ([1]; 10 min pretreatment, 500 nM BAM8-22 (Figure S2)) was “did not potently inhibit”. For the same compound, the inhibition at 30 µM ([1]; HEK-293T, 30 μM test compound for 10 min, then 300 μM CQ, read-out: inhibition of the CQ-induced activation of MrgprX1 (screening)) was greater than 90%, the IC50 ([1]; pretreated 10 min prior to 300 μM CQ, read-out: IC50 of inhibition of CQ-induced MrgprX1 activation) was 1.6 µM and the “effect on PAR2-AP-induced activation of MrgprC11” value ([2]; 30 μM, 10 min prior to 100 μM PAR2-AP) was “did not affect”. The “inhibitory effect on the activation of MrgprC11 by BAM8-22” value ([2]; concentrations up to 30 μM, 500 nM BAM8-22) was “minimal inhibitory effect”, the “effect on DCA-induced activation of TGR5” value [3] was “did not alter” and the “effect on total scratching bouts induced by PAR2-AP” value [4] was “no significant effect”.
